Experiment in all cases: FDH-coupled fluorescent demethylase assay, initial velocities, Hill fit
Holding throughout (format): biochemical

One assay deals with T1, Rph1 (Saccharomyces cerevisiae, UniProt P39956).
T1 construct: full-length, N-terminal Strep(II) tag (pET51b+), expressed in E. coli BL21 Star (DE3), codon-optimized

In another assay the target is T2, Gis1 (Saccharomyces cerevisiae, UniProt Q03833).
T2 construct: full-length, N-terminal Strep(II) tag (pET51b+), expressed in E. coli BL21 Star (DE3), codon-optimized
T2 sequence (Q03833 1-894): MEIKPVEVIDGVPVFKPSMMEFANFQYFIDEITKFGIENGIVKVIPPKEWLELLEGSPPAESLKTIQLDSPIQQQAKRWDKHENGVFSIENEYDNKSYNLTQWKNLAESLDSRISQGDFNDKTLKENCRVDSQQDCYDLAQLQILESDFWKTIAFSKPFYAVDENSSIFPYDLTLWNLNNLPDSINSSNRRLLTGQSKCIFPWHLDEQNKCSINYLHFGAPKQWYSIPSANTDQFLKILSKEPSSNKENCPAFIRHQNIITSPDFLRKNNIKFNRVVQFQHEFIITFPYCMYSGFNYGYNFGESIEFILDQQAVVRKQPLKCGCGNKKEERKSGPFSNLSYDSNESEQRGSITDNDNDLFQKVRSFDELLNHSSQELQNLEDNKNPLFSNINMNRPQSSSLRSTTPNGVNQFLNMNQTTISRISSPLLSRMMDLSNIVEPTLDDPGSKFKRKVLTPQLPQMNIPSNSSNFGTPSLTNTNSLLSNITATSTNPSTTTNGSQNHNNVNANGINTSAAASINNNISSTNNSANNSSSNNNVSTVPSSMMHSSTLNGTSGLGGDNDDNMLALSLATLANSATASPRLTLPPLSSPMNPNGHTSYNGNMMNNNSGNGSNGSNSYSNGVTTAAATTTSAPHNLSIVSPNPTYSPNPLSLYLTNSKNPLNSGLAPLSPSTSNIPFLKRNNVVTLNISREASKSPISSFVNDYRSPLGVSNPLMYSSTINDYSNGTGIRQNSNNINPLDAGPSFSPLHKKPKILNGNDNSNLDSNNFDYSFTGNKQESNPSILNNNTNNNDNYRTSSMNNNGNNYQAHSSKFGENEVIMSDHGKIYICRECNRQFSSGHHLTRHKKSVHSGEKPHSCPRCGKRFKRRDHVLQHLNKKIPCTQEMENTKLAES

The next assay has as its target T3, Jhd2 (Saccharomyces cerevisiae, UniProt P47156).
T3 construct: full-length, N-terminal Strep(II) tag (pET51b+), expressed in E. coli BL21 Star (DE3), codon-optimized
T3 sequence (P47156 1-728): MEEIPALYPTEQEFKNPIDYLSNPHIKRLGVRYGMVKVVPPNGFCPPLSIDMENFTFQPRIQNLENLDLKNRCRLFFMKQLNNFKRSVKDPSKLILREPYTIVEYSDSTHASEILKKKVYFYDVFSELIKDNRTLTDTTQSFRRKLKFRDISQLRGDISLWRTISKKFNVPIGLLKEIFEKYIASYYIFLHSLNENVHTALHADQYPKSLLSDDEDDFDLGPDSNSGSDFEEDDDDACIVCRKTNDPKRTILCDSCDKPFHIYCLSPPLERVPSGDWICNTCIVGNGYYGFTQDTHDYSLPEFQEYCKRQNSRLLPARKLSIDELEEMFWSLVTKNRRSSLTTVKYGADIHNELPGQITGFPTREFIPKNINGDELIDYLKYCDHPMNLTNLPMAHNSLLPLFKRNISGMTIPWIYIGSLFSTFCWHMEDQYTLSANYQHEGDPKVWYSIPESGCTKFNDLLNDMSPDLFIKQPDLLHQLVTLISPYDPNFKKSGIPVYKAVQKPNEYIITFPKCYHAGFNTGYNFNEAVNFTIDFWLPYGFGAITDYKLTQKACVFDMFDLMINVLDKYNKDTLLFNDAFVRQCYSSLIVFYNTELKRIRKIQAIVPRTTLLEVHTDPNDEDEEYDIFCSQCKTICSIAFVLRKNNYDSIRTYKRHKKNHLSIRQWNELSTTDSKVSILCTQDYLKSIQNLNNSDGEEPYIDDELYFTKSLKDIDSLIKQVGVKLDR

For another assay, the target named is T4, Jhd1 (Saccharomyces cerevisiae, UniProt P40034).
T4 construct: full-length, N-terminal Strep(II) tag (pET51b+), expressed in E. coli BL21 Star (DE3), codon-optimized
T4 sequence (P40034 1-492): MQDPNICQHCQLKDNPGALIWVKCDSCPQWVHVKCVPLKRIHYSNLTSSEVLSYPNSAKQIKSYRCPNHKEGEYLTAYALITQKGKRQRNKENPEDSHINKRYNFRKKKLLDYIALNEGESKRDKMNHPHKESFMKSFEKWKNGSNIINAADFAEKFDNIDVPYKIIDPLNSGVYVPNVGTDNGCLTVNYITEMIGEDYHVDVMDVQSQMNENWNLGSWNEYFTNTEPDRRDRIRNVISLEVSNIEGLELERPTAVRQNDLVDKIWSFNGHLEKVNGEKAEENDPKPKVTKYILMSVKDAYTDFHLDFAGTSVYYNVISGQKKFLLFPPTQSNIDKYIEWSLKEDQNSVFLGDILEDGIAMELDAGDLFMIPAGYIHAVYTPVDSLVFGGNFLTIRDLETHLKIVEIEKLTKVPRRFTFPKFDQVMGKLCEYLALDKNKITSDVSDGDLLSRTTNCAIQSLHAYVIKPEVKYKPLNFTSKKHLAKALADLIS

Molecules are shown by their SMILES. pIC50: −log10 of the molar value.

T1 sequence (P39956 whole entry): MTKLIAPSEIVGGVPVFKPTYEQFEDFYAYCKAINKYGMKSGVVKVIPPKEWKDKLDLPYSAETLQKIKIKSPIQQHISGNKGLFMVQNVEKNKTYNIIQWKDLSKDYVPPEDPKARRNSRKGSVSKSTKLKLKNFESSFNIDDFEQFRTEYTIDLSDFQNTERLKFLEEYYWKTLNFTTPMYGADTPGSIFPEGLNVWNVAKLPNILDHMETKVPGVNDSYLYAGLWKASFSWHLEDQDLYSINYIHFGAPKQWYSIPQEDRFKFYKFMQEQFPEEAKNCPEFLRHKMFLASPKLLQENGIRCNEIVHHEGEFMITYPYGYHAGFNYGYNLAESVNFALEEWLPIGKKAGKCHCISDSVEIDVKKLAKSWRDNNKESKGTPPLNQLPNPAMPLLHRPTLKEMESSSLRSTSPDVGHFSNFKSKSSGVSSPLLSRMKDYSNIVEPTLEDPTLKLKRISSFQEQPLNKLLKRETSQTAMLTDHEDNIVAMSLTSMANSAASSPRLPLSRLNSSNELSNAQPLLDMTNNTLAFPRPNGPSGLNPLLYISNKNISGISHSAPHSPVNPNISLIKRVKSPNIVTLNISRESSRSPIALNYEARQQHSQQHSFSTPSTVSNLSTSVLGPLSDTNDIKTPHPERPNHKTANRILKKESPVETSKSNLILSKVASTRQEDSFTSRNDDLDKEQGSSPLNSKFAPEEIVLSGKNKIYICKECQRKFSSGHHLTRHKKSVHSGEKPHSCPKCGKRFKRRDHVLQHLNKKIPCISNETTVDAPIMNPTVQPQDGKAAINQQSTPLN

With `O=C(O)CC[C@@H](O)C(=O)O` [2-HG], the negative-log IC50 (pIC50) on Rph1 is around 2.89; against Gis1, around 2.51; against Jhd2 it was around 2.66; on Jhd1, around 2.70.

For the origin of these results see PMC10681907, “2-Hydroxyglutarate modulates histone methylation at specific loci and alters gene expression via Rph1 inhibition” (Life Science Alliance, 2023).
